Results taken from US7544805B2 (Chemagis Ltd., priority 2004, dated 2009).

Tests used:
[1] = Bulk density of the residue; format: physicochemical; details: residue after drying
From the text: The solution was then freeze dried (lyophilized), producing a residue with a bulk density of 0.061 gram/cm^3.
The solution was then spray-dried, producing a residue with a bulk density of 0.269 gram/cm^3.

[2] = Retention of amorphous character after pressing (powder X-ray diffraction); format: physicochemical; details: pressed at 10,000 Kg/cm^3 for 1 minute; X-ray diffractogram
Procedure: X-ray diffraction data were acquired using a PHILIPS X-ray diffractometer model PW1050-70. System description: Kα1=1.54178 Å, voltage 40 kV, current 28 mA, diversion slit=1°, receiving slit=0.2 mm, scattering slit=1° with a Graphite monochromator. Experiment parameters: pattern measured between 2θ=4° and 2θ=30° with 0.05° increments; count time was 0.5 second per increment.
The X-ray analysis of the residue gave a featureless diffractogram with a broad peak centered at 2θ about 22°, showing the residue was amorphous. The residue was pressed at 10,000 Kg/cm^3 for 1 minute.
The residue was then pressed at 10,000 Kg/cm3 for 1 minute.

SMILES	bulk density [1]	amorphous character after pressing [2]
CC(C)(O)c1ccccc1CC[C@@H](SCC1(CC(=O)[O-])CC1)c1cccc(/C=C/c2ccc3ccc(Cl)cc3n2)c1.[Na+] [Example 1, Amorphous Montelukast Sodium]	0.269 gram/cm^3	remained amorphous
CC(C)(O)c1ccccc1CC[C@@H](SCC1(CC(=O)[O-])CC1)c1cccc(/C=C/c2ccc3ccc(Cl)cc3n2)c1.[Na+] [Reference Example 1, Amorphous Montelukast Sodium, reference compound]	0.061 gram/cm^3	
